Patent US5834427A, “Casein phosphopeptide, casein containing same and process for the preparation thereof” (Han; Sang Kee, priority 1995, dated 1998)
No end group written: not given here.

Test: Efficacy test for calcium solubilizing effect in vivo (soluble calcium in small intestine contents, atomic absorption spectrometer)
Parameters: species or system Wister Rats
Settings: for Calcium concentration in the small intestine, Lower part / Calcium concentration in the small intestine, Total / Calcium concentration in the small intestine, Upper part: measured one hour after feeding, mean ± standard deviation
Protocol: Efficacy test for calcium solubilizing effect In vivo
Forty Wister Rats weighing about 120 g on an average were supplied with a controlled diet consisting of 24 wt % of crude proteins, 5 wt % of crude fats, 60 wt % of starches, 5 wt % of crude fibers, 5 wt % of minerals and 1 wt % of vitamins for a week and then starved for 24 hours. The rats were divided into 4 groups, each group including 10 rats.
Rats of the first group were supplied with a controlled diet including 10 wt % of the beta-casein H for 1.5 hours.
Rats of the second group were supplied with a controlled diet including 10 wt % of a conventional beta-casein for 1.5 hours.
Rats of the third group were supplied with a controlled diet including 1 wt % of the CPP in accordance with the present invention for 1.5 hours.
Rats of the fourth group were supplied with a controlled diet including 1 wt % of the conventional CPP for 1.5 hours.
All rats were allowed to freely have the controlled diets as much as they can. One hour after the completion of the above feeding, all rats were anesthetized, and the small intestines were excised therefrom. The small intestines were washed with a saline solution and then divided into two parts, i.e, the upper part and the lower part.
Thereafter, the contents in the small intestine were isolated, homogenized and centrifugated. A calcium in the supernant was measured three times by an atomic absorption spectrometer (Perkin Elmer Co.).

[1] = CPP feed, 3rd Group (inventive CPP) over 4th Group (conventional CPP)
[2] = CPP feed, controlled diet including 1 wt % CPP for 1.5 hours
[3] = casein feed, controlled diet including 10 wt % casein for 1.5 hours

Row | Molecule | Improvement (%) of calcium concentration, Lower part [1] | Improvement (%) of calcium concentration, Total [1] | Improvement (%) of calcium concentration, Upper part [1] | Improvement (%) of calcium concentration, Total (CPP feed, 3rd Group (inventive CPP) over 4th Group (conventional CPP), listed as present CPP) | Calcium concentration in the small intestine, Lower part [2] | Calcium concentration in the small intestine, Total [2] | Calcium concentration in the small intestine, Upper part [2] | Calcium concentration in the small intestine, Total (CPP feed, controlled diet including 1 wt % CPP for 1.5 hours, listed as present CPP) | Calcium concentration in the small intestine, Lower part [3] | Calcium concentration in the small intestine, Total [3] | Calcium concentration in the small intestine, Upper part [3]
1 | CPP in accordance with the present invention: casein phosphopeptide of SEQ. ID NO: 1, 28 amino acids, 25th Arg of the conventional CPP substituted by Cys (RELEELNVPGEIVESLSSSEESITCINK; also: phosphorylated, sites not given here) | 29.8% | 23.1% | 7.0% | 23% | 51.02 ± 3.1 ppm | 68.20 ± 2.5 ppm | 17.18 ± 1.9 ppm | 68.20 ppm |  |  | 
2 | conventional beta-casein: conventional beta-casein fed to the second group as comparison (protein, UniProt P02666 16-224, looked up) Beta-casein: RELEELNVPGEIVESLSSSEESITRINKKIEKFQSEEQQQTEDELQDKIHPFAQTQSLVYPFPGPIPNSLPQNIPPLTQTPVVVPPFLQPEVMGVSKVKEAMAPKHKEMPFPKYPVEPFTESQSLTLTDVENLHLPLPLLQSWMHQPHQPLPPTVMFPPQSVLSLSQSKVLPVPQKAVPYPQRDMPIQAFLLYQEPVLGPVRGPFPIIV |  |  |  |  |  |  |  |  | 35.11 ± 2.3 ppm | 50.60 ± 2.0 ppm | 15.49 ± 1.7 ppm
